Laboratory results from patent publication US20240101548A1, “HYDROXAMATE COMPOUND, PREPARATION METHOD THEREFOR AND APPLICATION THEREOF” (SHENZHEN CHIPSCREEN BIOSCIENCES CO., LTD., priority 2020, published 2024).
Where two headings read alike, the source gives them in different places.

Experiments:
Format in all cases: cell-based, human
[1] = system: IL-2-induced JAK1/JAK3 signal pathway; assay: IL-2-induced proliferation of KHYG-1 cells (JAK1/JAK3 signal); conditions: KHYG-1 cell proliferation, IL-2 10 ng/mL, 72 hours, read-out: Inhibition activity IC50 on IL-2-induced JAK1/JAK3 signal pathway
How it was run: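 KHYG-1 NK lymphoma cells were cultured with IL-2 and test compound at various doses for 72 h at 37 °C and 5% CO2, and proliferation was read with alamarBlue fluorescence. Inhibition was normalized to wells without compound or cytokine (0%) and IL-2 wells without compound (100%), and C50 was derived from the dose-inhibition data.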

[2] = system: IL-10-induced JAK1/TYK2 signal pathway; assay: IL-10-induced JAK1/TYK2 signal pathway STAT3-Luc reporter gene assay in U2OS cells; conditions: read-out: Half inhibition dose (IC50) on IL-10-induced JAK1/TYK2 signal pathway
Text: Cytokine IL-10 is one of the main members of IL-10 family. The receptor that cytokine IL-10 binds to consists of two kinds of subunits, i.e., IL-10R1 and IL-10R2, which respectively couple with JAK1 and TYK2. After the coupling of IL-10 with its receptor, interaction of phosphorylation occurs between JAK1 and TYK2 to form STAT3 docking site for phosphorylation of STAT3. The phosphorylated STAT3 enters the nucleus and drives the transcription and expression of downstream genes.
The reporter gene plasmid STAT3-Luc Reporter used in the present invention has luciferase expression sequence as the reporter gene, upstream of which is a promoter sequence containing multiple STAT3 binding sites. When phosphorylated STAT3 induced by IL-10 signal pathway binds to the promoter of STAT3-Luc Reporter plasmid, luciferase is transcribed and expressed. The excitation fluorescence catalyzed by Luciferase can be detected after the addition of […] substrate, whose intensity can quantitively reflect the activation level of the signal pathway.
Human osteosarcoma cell line U20S was commercially available from American Type Culture Collection (ATCC), and relevant culture conditions referred to those from ATCC. It was known that such cell line could express IL-10R2, JAK1, TYK2 and STAT3, therefore, by exogenous expression of IL-10R1 gene, a complete IL-10 signal pathway could be established. The human IL-10R1 subunit overexpression plasmid pCMV3-IL10RA-EGFP was constructed by Shanghai Genechem Co., Ltd., and capable of simultaneously expressing enhanced green fluorescent protein. In the subsequent detection and calculation, the signal of green fluorescent protein in the tested sample was used as a reference for transfection efficiency calibration of the luciferase reporter gene signal. Reporter plasmid STAT3-Luc Reporter was commercially available from Ji Man Biotech (Shanghai) Co., Ltd.
X-tremeGENE 9 DNA Transfection Reagent (Roche) was used for the transfection of plasmid DNA into cells, Cell Culture Lysis 5× reagent (Promega) and Luciferase Assay System (Promega) were used in cell lysate preparation and enzyme-substrate reaction for luciferase reporter gene detection. Green fluorescent protein signal and luciferase reporter gene signal were both detected by Tecan Spark™ 10M multimode microplate reader. The inhibition rate of the tested compound on the IL-10 signal pathway reporter gene signal and the half inhibition dose IC50 were both calculated using Microsoft Excel and GraphPad Prism 7.00 software.
U2OS cell line was inoculated in 96-well plate with flat bottom at 5000 cells per well, and cultured overnight at 37° C. and 5% CO2 followed by plasmid transfection. Following the instructions and using X-tremeGENE 9 DNA Transfection Reagent, pCMV3-IL10RA-EGFP and STAT3-Luc Reporter plasmids were co-transfected into the inoculated U2OS cells. After 24 hours of transfection, the tested compound was added respectively for a final concentration of 0, 0.1, 0.3, 1, 3, 10, 30, 100, or 300 nM. After 6 hours of culture at 37° C. and 5% CO2, IL-10 cytokine (Human IL-10 PEPROTECH 200-10-10UG) was added to each well for a final concentration of 10 ng/mL, the well in which neither compound nor cytokine was added was designated as 0% control well. The culture was continued for 24 hours before testing.
Cell lysate was prepared by using Cell Culture Lysis reagent and transferred to 96-well plate with half-well clear bottom. The green fluorescent protein signal value was detected at Ex485/Em520 using Tecan microplate reader, and recorded. After adding to each well the luciferase substrate from Luciferase Assay System, the signal value of luciferase-substrate reaction was immediately detected at 560 nm using Tecan microplate reader, and recorded.
Using Microsoft Excel software, the signal value of luciferase-substrate reaction of each well was calculated and calibrated based on the signal value of green fluorescent protein of each well. […]

[3] = system: EPO-induced JAK2 signal pathway; assay: EPO-induced proliferation of UT-7 cells (JAK2 signal); conditions: UT-7 cell proliferation, EPO 10 ng/mL, 72 hours, read-out: Inhibition activity IC50 on EPO-induced JAK2 signal pathway
How it was run: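 UT-7 cells (15000/well) stimulated with 10 ng/mL human recombinant EPO plus compound at final 0, 100, 1000 or 10000 nM, 72 h at 37° C., 5% CO2. Proliferation by alamarBlue fluorescence (Ex530/Em590); inhibition normalised to no-cytokine/no-compound (0) and EPO-only (100) wells, […] derived from dose-inhibition.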

[4] = Homo sapiens, U2OS, U2OS cells, STAT3-Luc reporter, IL-10 10 ng/mL

SMILES	IC50 ([1]; Homo sapiens)	IC50 ([2]; Homo sapiens, U2OS)	IC50 ([3]; Homo sapiens, UT7)	IC50 [2, 4]	IC50 ([2]; Homo sapiens, U2OS cells, STAT3-Luc reporter, IL-10 10 ng/mL)	IC50 [1]	IC50 ([2]; U2OS cells, STAT3-Luc reporter, IL-10 10 ng/mL)	IC50 [3]
[2H]C([2H])([2H])Oc1c(Nc2cc(Nc3cc(C)nc(C)n3)ncc2C(=O)NOCC)cccc1-c1ncccn1 [Example 279, 6-((2,6-dimethylpyrimidin-4-yl)amino)-N-ethoxy-4-((2-(methoxy-d3)-3-(pyrimidin-2-yl)phenyl)amino)nicotinamide]	> 10 µM	0.529 nM	> 10 µM	–	–	–	–	–
CCONC(=O)c1cnc(Nc2ccc(C#N)cn2)cc1Nc1ccc(Cl)cc1N(C)S(C)(=O)=O [Example 114, 4-((4-chloro-2-(N-methylmethanesulfonamido)phenyl)amino)-N-ethoxy-6-((5-cyanopyridin-2-yl)amino)nicotinamide]	> 10 µM	–	> 10 µM	0.32 nM	–	–	–	–
CCONC(=O)c1cnc(Nc2ccn(C)n2)cc1Nc1cc(F)c(C2CC2)cc1N(C)S(C)(=O)=O [Example 171, 4-((4-cyclopropyl-5-fluoro-2-(N-methylmethanesulfonamido)phenyl)amino)-N-ethoxy-6-((1-methyl-1H-pyrazol-3-yl)amino)nicotinamide]	> 10 µM	–	> 10 µM	1.54 nM	–	–	–	–
CONC(=O)c1cnc(Nc2ccc(F)cn2)cc1Nc1ccc(C2CC2)cc1N(C)S(C)(=O)=O [Example 13, 4-((4-cyclopropyl-2-(N-methylmethanesulfonamido)phenyl)amino)-6-((5-fluoropyridin-2-yl)amino)-N-methoxy nicotinamide]	> 10 µM	–	> 10 µM	1.1 nM	–	–	–	–
CCONC(=O)c1cnc(Nc2ccnc(C)n2)cc1Nc1cccc(-c2ncc(C)cn2)c1OC [Example 240, N-ethoxy-4-((2-methoxy-3-(5-methylpyrimidin-2-yl)phenyl)amino)-6-((2-methylpyrimidin-4-yl)amino)nicotinamide]	> 10 µM	–	> 10 µM	0.258 nM	–	–	–	–
CCONC(=O)c1cnc(Nc2cc(C)nc(C)n2)cc1Nc1cccc(-c2ncc(Cl)cn2)c1OC [Example 218, 4-((3-(5-chloropyrimidin-2-yl)-2-methoxyphenyl)amino)-6-((2,6-dimethylpyrimidin-4-yl)amino)-N-ethoxy nicotinamide]	> 10 µM	–	> 10 µM	–	0.171 nM	–	–	–
CONC(=O)c1cnc(Nc2ccc(F)cn2)cc1Nc1ccccc1N(C)S(C)(=O)=O [Example 4, 6-((5-fluoropyridin-2-yl)amino)-N-methoxy-4-((2-(N-methylmethanesulfonamido)phenyl)amino)nicotinamide]	> 10 µM	–	> 10 µM	0.705 nM	–	–	–	–
CONC(=O)c1cnc(Nc2ccc(F)cn2)cc1Nc1ccc(Cl)cc1N(C)S(C)(=O)=O [Example 46, 4-((4-chloro-2-(N-methylmethanesulfonamido)phenyl)amino)-6-((5-fluoropyridin-2-yl)amino)-N-methoxy nicotinamide]	> 10 µM	–	> 10 µM	1.09 nM	–	–	–	–
CCONC(=O)c1cnc(Nc2ccnc(OC)n2)cc1Nc1cc(F)c(C2CC2)cc1N(C)S(C)(=O)=O [Example 188, 4-((4-cyclopropyl-5-fluoro-2-(N-methylmethanesulfonamido)phenyl)amino)-N-ethoxy-6-((2-methoxypyrimidin-4-yl)amino)nicotinamide]	> 10 µM	–	> 10 µM	1.27 nM	–	–	–	–
[2H]C([2H])([2H])Oc1c(Nc2cc(Nc3cc(C)nc(C)n3)ncc2C(=O)NOCC)cccc1-c1ncc(F)cn1 [Example 273, 6-((2,6-dimethylpyrimidin-4-yl)amino)-N-ethoxy-4-((3-(5-fluoropyrimidin-2-yl)-2-(methoxy-d3)phenyl)amino)nicotinamide]	> 10 µM	–	> 10 µM	2.19 nM	–	–	–	–
CCONC(=O)c1cnc(Nc2ccnc(C)n2)cc1Nc1cc(F)cc(-c2ncn(C3CC3)n2)c1OC [Example 245, 4-((3-(1-cyclopropyl-1H-1,2,4-triazol-3-yl)-5-fluoro-2-methoxyphenyl)amino)-N-ethoxy-6-((2-methylpyrimidin-4-yl)amino)nicotinamide]	> 10 µM	–	> 10 µM	1.92 nM	–	–	–	–
CONC(=O)c1cnc(Nc2ccc(OC)cn2)cc1Nc1ccc(C2CC2)cc1N(C)S(C)(=O)=O [Example 16, 4-((4-cyclopropyl-2-(N-methylmethanesulfonamido)phenyl)amino)-N-methoxy-6-((5-methoxypyridin-2-yl)amino)nicotinamide]	> 10 µM	–	> 10 µM	1.27 nM	–	–	–	–
CCONC(=O)c1cnc(NC(=O)C2CC2)cc1Nc1cccc(-c2ncc(F)cn2)c1OC [Example 209, 6-(cyclopropylcarboxamido)-N-ethoxy-4-((3-(5-fluoropyrimidin-2-yl)-2-methoxyphenyl)amino)nicotinamide]	> 10 µM	–	> 10 µM	1.78 nM	–	–	–	–
CCONC(=O)c1cnc(NC(=O)C2CC2)cc1Nc1cccc(-c2ncc(C)cn2)c1OC [Example 239, 6-(cyclopropylcarboxamido)-N-ethoxy-4-((2-methoxy-3-(5-methylpyrimidin-2-yl)phenyl)amino)nicotinamide]	> 10 µM	–	> 10 µM	0.289 nM	–	–	–	–
CCONC(=O)c1cnc(Nc2cc(C)nc(C)n2)cc1Nc1ccc(N2CCCCC2)cc1N(C)S(C)(=O)=O [Example 132, 6-((2,6-dimethylpyrimidin-4-yl)amino)-N-ethoxy-4-((2-(N-methylmethanesulfonamido)-4-(piperidin-1-yl)phenyl)amino)nicotinamide]	> 10 µM	–	> 10 µM	0.977 nM	–	–	–	–
CCONC(=O)c1cnc(Nc2cccc(C)n2)cc1Nc1ccc(C2CC2)cc1N(C)S(C)(=O)=O [Example 217, 4-((4-cyclopropyl-2-(N-methylmethanesulfonamido)phenyl)amino)-N-ethoxy-6-((6-methylpyridin-2-yl)amino)nicotinamide]	–	–	–	–	–	> 10 µM	1.05 nM	> 10 µM
[2H]C([2H])([2H])NC(=O)c1cnc(Nc2ccccn2)cc1Nc1cccc(-c2ncc(F)cn2)c1OC [Example 253, 4-((3-(5-fluoropyrimidin-2-yl)-2-methoxyphenyl)amino)-N-(methyl-d3)-6-(pyridin-2-ylamino)nicotinamide, reference compound]	–	–	–	9.75 nM	–	–	–	–
